# From ChEMBL document CHEMBL1201862, “PubChem BioAssay data set” (2004)
# The source made the active and inactive calls.
# Tests used:
# [1] = THP-1 cell cytotoxicity, dose response, cytotoxicity control for Vif-APOBEC3G degradation inhibitor project, THP-1 cells (AID 1117359); type: functional; settings: Human immunodeficiency virus 1, THP-1
# Danio rerio = assay: In Vivo Angiogenesis Dose-Response Confirmation. [Related pubchem assays: 732 (Assay preceding this confirmatory assay.)]; type: functional, organism-based
# [2] = biological target: Heat shock protein HSP 90-alpha (Homo sapiens, UniProt P07900); assay: Luminescence-based dose response biochemical high throughput screening assay for inhibitors of the Heat Shock Protein 90 (HSP90). [Related pubchem assays: 1831 (Summary AID.), 1846 (Confirmation screen.), 1789 (Primary screen.)]
# H4 = assay: Luminescence Cell-Based Dose Response HTS to Identify Activators of 5'UTR Stem-Loop Driven Prion Protein mRNA Translation in H4 Neuroglioblastoma Cells. [Related pubchem assays: 1829 (Project Summary), 1814 (Primary HTS)]; type: functional; settings: Homo sapiens
# [3] = Luminescence Cell-Based Dose Confirmation to Identify Activators of 5'UTR Stem-Loop Driven Alpha-Synuclein mRNA Translation in H4 Neuroglioblastoma Cells. [Related pubchem assays: 1829 (Project Summary), 1814 (Primary HTS)]; type: functional
# [4] = Luminescence Cell-Based Dose Response HTS to Identify Activators of Luciferase Translation or Activity in H4 […] Cells. [Related pubchem assays: 1829 (Project Summary), 1814 (Primary HTS)]; type: functional
# [5] = Luminescence Cell-Based Dose Response to Identify Activators of Luciferase Translation or Activity in H4-C Neuroglioblastoma Cells. [Related pubchem assays: 1829 (Project Summary), 1814 (Primary HTS)]; type: functional
# [6] = Luminescence Cell-Based Dose Response to Identify Activators of 5'UTR Stem-Loop Driven Prion Protein mRNA Translation in H4-C Neuroglioblastoma Cells. [Related pubchem assays: 1829 (Project Summary), 1814 (Primary HTS)]; type: functional
# INS1 = assay: beta cell apoptosis inhibitors, cytokine rescue, dose response, luminescence, retest (AID 449756); type: functional, cell-based; settings: Rattus norvegicus;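 further: cell death triggered by IL-1 beta plus TNF-alpha plus IFN-gamma mixture; protective hits raise ATP signal compared with cytokine alone wells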
# [7] = biological target: T1, Ubiquitin-conjugating enzyme E2 N (Homo sapiens, UniProt P61088); type: functional;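 further: Dose-response confirmation in a TR-FRET assay detecting UBC13-driven polyubiquitin chain formation, inhibition measured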
# T1 sequence (P61088 whole entry): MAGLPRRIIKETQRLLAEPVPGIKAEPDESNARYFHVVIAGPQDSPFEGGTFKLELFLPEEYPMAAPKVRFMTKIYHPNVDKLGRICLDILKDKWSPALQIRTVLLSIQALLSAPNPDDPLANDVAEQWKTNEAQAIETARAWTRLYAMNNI
# [8] = HCT116 cell viability decrease, GSK3B pretreatment – CellTiter-Glo, IC50, dose response (AID 1117339); type: functional; settings: HCT-116
# [9] = CellTiter-Glo luminescent dose response of DLD-1 viability loss (AID 1117352); type: functional
# [10] = RKO cell viability reduction, dose response, CellTiter-Glo luminescence (AID 1117322); type: functional
# [11] = Concentration-dependent survival of SW480 colon cancer line, luminescence detection with CellTiter-Glo, half-maximal inhibitory concentration (AID 1117338); type: functional
# [12] = cytotoxicity toward HT-29 cells – cell-based, CellTiter-Glo luminescence, IC50, dose response (AID 1117330); type: functional
# [13] = cytotoxicity toward Colo320 cells – cell-based, CellTiter-Glo luminescence, IC50, dose response (AID 1117334); type: functional; settings: COLO 320
# [14] = SNU-C1 cell viability reduction, dose response, CellTiter-Glo luminescence (AID 1117323); type: functional, cell-based
# [15] = cytotoxicity toward HCT116 cells – cell-based, CellTiter-Glo luminescence, IC50, dose response (AID 1117332); type: functional; settings: HCT-116
# [16] = Vero cell cytotoxicity, dose response, cytotoxicity control for Vif-APOBEC3G degradation inhibitor project, Vero cells (AID 1117358); type: functional; settings: Human immunodeficiency virus 1, Vero
# [17] = Luminescence-based cell-based high throughput dose response assay to identify activators of the DAF-12 from the parasite S. stercoralis (ssDAF-12).; type: functional
# Cytochrome P450 3A4 = Cytochrome P450 3A4 (Homo sapiens, UniProt P08684);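 further: CYP3A4 tested as one member of a cytochrome P450 panel screen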
# [18] = Luminescence Cell-Based Dose Retest to Confirm Inhibitors of Cancer Stem Cells. [Related pubchem assays (depositor defined):AID2717, AID2721]; type: functional; settings: Homo sapiens
# [19] = biological target: Aryl hydrocarbon receptor (Homo sapiens, UniProt P35869); assay: Luminescence-based cell-based high throughput dose response assay for activators of the Aryl Hydrocarbon Receptor (AHR). [Related pubchem assays: 2796 (Primary screen (AHR activators in singlicate)), 2845 (Confirmation screen (AHR activators in triplicate)), 434939 (Counterscreen (PXR activators in triplicate)), 2804 (Summary (AHR activators))]; type: ADME
# Aspartyl aminopeptidase = Aspartyl aminopeptidase (Plasmodium falciparum 3D7, UniProt Q8I2J3); assay: Counterscreen for inhibitors of M1 and M17 aminopeptidases: QFRET-based biochemical high throughput dose response assay for inhibitors of the Plasmodium falciparum M18 Aspartyl Aminopeptidase (PFM18AAP). [Related PubChem assays: 1619 (Screening assay (M17LAP inhibitors).), 1445 (Screening assay (M1AAP inhibitors).)]
# Procathepsin L = Procathepsin L (Homo sapiens, UniProt P07711); assay: cathepsin L inhibitors, dose response, counter-screen for M1/M17 aminopeptidase inhibitor project, biochemical, QFRET, 1536-well (AID 2214)
# [20] = A cytotoxicity screen of small molecule inhibitors of the PhoP region in Salmonella typhi identified in the primary screen. [Related pubchem assays: 1850, 1864, 1985 ]; type: functional
# Leucine aminopeptidase = biological target: T2, Leucine aminopeptidase (Plasmodium falciparum 3D7, UniProt Q8IL11); assay: P. falciparum M17LAP inhibitors, primary screen, biochemical, fluorogenic H-Leu-NHMec substrate, 1536-well (AID 1619); type: functional
# T2 sequence (Q8IL11 whole entry): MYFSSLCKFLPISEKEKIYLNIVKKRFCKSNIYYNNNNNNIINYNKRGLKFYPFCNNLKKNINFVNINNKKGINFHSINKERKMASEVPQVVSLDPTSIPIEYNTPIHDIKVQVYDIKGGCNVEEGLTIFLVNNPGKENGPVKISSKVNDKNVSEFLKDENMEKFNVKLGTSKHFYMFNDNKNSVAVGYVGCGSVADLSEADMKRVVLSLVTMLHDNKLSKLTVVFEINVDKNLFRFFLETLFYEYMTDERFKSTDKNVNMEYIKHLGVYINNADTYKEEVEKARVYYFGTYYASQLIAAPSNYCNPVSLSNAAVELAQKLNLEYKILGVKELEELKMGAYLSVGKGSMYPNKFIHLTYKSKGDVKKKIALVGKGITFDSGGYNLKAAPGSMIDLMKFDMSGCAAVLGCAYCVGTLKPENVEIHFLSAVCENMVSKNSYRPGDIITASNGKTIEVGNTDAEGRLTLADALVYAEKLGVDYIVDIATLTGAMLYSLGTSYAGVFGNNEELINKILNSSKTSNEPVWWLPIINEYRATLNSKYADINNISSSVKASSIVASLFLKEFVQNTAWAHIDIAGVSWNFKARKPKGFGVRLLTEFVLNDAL
# [21] = cytotoxicity in HPDE-C7 cells, cell-based, fluorescence, HTS (AID 430); type: functional; settings: Homo sapiens
# [22] = cytotoxicity in KRAS-transformed pancreatic duct cells, primary screen, cell-based, fluorescence, HTS (AID 431); type: functional; settings: Homo sapiens;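 further: cell line used: HPDE-C7K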
# [23] = cytotoxicity toward NIH3T3 fibroblasts, dose response, counter-screen, cell-based, ATP luminescence, mouse fibroblasts (AID 2010); type: functional;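 further: cells exposed to compound for about 90 hours before reading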
# [24] = inhibitors of intracellular T. cruzi replication, confirmation, NIH3T3 host cells, beta-gal luminescence (AID 2044); type: functional, cell-based;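 further: intracellular parasites grown in NIH/3T3 mouse fibroblasts as host cells; luminescent beta-galactosidase reporter signal from transgenic T. cruzi replicating inside host cells; inhibitors lower the luminescence signal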
# [25] = biological target: Peroxisome proliferator-activated receptor gamma/Nuclear receptor coactivator 1 (Homo sapiens, UniProt P37231); type: functional;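 further: agonist potency as compounds enhance coactivator SRC-1 recruitment to PPARgamma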
# [26] = biological target: Peroxisome proliferator-activated receptor gamma/Nuclear receptor coactivator 2 (Homo sapiens, UniProt P37231); type: functional;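 further: agonist potency for raising coactivator recruitment to the receptor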
# [27] = biological target: Peroxisome proliferator-activated receptor gamma/Nuclear receptor coactivator 3 (Homo sapiens, UniProt P37231); type: functional;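 further: agonist potency for raising coactivator recruitment to the receptor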
# [28] = biological target: T3, Short transient receptor potential channel 4 (Mus musculus, UniProt Q9QUQ5); assay: mouse TRPC4 channel inhibitors, dose response, cell-based, HEK293 TRPC4/mu-opioid, Fluo-4 calcium (AID 434942); type: functional;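 further: potency of inhibitors blocking the TRPC4 calcium response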
# T3 sequence (Q9QUQ5 whole entry): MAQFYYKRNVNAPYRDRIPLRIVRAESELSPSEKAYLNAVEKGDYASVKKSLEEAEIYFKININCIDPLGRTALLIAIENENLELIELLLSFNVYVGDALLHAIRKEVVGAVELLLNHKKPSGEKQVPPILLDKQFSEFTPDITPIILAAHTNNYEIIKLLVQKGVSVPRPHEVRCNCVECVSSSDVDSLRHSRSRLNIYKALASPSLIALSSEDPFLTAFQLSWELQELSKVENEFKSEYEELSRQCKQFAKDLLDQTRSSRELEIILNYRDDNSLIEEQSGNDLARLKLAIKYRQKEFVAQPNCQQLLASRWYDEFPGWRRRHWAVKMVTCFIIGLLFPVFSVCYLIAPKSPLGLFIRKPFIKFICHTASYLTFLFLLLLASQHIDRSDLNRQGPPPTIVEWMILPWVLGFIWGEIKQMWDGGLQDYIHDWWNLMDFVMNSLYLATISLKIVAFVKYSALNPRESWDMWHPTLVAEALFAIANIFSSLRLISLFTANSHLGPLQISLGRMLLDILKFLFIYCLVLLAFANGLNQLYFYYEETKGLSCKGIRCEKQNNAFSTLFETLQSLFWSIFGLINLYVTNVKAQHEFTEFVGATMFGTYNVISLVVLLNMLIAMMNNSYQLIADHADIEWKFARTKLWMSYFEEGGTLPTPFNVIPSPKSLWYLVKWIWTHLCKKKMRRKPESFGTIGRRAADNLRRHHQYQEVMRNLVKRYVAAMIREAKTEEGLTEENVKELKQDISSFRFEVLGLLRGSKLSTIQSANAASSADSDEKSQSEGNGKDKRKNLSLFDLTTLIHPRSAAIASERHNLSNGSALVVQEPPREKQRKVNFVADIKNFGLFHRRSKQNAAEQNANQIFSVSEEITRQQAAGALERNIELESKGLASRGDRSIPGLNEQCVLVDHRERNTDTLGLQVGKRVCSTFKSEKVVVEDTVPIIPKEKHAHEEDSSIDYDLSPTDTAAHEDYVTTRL
# Chain of Aryl hydrocarbon receptor (P35869 whole entry): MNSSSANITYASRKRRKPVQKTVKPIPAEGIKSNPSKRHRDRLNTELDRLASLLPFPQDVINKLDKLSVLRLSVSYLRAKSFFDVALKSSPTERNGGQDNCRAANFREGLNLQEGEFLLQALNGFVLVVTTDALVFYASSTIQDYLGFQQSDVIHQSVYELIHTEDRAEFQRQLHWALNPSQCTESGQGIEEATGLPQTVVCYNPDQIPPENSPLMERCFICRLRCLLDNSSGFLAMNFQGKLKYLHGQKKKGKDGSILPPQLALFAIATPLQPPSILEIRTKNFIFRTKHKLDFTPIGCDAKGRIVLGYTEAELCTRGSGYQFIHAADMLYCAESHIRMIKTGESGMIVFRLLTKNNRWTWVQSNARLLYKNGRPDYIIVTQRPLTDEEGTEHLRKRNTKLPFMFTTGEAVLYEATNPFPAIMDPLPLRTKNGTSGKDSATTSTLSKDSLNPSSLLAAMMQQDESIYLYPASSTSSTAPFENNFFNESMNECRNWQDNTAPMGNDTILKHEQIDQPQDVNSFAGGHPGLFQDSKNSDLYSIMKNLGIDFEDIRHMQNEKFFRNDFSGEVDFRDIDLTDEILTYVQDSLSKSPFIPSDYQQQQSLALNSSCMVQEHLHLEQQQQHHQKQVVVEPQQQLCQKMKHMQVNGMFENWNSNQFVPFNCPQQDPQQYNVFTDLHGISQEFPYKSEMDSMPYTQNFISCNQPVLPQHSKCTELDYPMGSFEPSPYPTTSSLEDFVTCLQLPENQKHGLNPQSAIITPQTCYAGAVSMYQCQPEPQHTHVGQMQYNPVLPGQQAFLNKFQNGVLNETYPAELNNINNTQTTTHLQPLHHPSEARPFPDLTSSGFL
# Chain of Aspartyl aminopeptidase (Q8I2J3 whole entry): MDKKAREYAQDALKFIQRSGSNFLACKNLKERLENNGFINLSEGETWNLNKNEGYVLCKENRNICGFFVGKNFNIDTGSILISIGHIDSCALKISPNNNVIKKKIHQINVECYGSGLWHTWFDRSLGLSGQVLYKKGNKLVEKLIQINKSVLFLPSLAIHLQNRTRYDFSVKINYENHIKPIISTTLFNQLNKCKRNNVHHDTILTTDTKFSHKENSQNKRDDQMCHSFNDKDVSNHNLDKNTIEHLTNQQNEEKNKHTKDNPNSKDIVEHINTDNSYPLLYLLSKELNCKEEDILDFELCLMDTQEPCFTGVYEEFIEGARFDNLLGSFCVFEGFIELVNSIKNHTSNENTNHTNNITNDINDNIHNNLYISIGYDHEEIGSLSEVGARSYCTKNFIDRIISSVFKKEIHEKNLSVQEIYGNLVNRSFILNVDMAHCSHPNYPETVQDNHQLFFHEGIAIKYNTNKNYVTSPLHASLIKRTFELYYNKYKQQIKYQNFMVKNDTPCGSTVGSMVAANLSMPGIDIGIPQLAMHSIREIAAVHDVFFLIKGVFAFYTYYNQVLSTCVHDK
# Chain of Procathepsin L (P07711 whole entry): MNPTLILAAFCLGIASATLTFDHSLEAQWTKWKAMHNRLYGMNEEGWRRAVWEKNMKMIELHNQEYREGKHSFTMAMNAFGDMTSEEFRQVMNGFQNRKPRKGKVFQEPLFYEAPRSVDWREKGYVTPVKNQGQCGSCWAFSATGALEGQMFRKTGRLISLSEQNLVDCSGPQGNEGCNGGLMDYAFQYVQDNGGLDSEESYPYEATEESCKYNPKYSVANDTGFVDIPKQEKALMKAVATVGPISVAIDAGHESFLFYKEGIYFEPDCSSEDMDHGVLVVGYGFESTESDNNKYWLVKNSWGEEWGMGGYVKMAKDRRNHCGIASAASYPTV
# Chain of Peroxisome proliferator-activated receptor gamma/Nuclear receptor coactivator 3 (P37231 whole entry): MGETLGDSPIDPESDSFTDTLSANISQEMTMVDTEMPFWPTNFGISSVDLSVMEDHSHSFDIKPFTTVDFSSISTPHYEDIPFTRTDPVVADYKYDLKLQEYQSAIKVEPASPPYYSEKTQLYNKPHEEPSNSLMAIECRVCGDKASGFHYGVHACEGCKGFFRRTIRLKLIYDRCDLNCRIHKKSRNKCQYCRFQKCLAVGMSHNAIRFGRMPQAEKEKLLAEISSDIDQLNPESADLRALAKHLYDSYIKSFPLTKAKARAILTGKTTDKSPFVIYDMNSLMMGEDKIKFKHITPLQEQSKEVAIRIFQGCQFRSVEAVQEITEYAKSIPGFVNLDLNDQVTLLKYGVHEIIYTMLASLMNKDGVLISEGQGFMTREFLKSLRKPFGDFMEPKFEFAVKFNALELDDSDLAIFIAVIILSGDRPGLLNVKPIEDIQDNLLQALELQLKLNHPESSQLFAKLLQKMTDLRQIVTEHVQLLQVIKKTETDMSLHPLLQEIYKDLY
# Chain of Peroxisome proliferator-activated receptor gamma/Nuclear receptor coactivator 3 (Q9Y6Q9 whole entry, further chain): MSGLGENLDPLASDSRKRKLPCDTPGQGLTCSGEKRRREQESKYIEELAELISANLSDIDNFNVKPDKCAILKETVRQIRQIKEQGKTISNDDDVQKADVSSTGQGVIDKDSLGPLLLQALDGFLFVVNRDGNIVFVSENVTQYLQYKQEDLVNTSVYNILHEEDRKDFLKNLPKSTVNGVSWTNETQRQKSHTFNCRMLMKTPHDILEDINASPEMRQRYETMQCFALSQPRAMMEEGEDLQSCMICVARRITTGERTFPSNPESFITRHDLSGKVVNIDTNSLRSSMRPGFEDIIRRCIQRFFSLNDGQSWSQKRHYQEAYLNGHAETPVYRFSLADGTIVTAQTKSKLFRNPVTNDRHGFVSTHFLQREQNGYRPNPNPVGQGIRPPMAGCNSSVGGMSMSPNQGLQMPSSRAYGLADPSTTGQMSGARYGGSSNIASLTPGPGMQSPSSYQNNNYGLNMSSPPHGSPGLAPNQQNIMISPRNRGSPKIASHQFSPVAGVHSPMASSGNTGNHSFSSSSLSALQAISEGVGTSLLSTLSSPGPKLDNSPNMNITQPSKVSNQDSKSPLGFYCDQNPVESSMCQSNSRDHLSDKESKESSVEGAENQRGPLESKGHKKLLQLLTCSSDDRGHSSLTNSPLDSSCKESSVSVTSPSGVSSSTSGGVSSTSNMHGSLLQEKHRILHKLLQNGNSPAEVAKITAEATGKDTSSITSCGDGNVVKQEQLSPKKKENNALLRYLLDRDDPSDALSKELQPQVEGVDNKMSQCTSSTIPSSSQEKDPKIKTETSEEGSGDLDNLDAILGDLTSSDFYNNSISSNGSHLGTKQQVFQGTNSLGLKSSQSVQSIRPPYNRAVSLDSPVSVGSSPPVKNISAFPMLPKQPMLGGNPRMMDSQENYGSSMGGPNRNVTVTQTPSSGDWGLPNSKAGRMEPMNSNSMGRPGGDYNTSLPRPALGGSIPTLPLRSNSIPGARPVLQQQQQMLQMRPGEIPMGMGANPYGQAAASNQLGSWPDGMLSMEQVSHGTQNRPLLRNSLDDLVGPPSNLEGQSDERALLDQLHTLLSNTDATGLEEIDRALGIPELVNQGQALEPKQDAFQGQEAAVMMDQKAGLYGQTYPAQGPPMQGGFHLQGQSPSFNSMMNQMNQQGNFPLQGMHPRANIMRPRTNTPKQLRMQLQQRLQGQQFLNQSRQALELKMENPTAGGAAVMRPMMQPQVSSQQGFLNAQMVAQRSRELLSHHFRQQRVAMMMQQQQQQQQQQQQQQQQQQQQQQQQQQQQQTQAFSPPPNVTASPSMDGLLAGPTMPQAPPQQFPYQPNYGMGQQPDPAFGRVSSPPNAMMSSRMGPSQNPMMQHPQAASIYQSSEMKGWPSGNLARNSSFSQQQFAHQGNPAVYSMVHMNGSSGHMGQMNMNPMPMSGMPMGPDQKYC
# Chain of Cytochrome P450 3A4 (P08684 whole entry): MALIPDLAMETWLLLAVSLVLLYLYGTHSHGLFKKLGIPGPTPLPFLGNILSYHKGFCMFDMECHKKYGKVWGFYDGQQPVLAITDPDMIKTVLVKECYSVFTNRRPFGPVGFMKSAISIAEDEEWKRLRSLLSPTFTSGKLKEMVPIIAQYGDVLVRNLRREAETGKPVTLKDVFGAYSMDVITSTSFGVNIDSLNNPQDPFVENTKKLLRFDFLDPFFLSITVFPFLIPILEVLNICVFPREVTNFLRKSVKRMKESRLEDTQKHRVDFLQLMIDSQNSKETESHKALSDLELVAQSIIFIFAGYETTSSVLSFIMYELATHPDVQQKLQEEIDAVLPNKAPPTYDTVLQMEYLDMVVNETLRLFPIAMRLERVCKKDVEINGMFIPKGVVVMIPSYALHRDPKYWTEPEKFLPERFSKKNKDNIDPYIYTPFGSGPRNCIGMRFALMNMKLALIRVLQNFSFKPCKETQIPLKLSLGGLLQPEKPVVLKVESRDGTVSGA
smiles,measurement,setting,value
O=C1/C(=C\c2ccco2)CCC/C1=C\c1ccco1,CC50,[1],> 40 µM (active)
Cc1cccc2c1NC(=O)/C2=C1\Nc2ccccc2\C1=N/O,IC50,Danio rerio,0.68 µM (active)
CCn1c(=O)oc2cc(NC(=O)CCl)ccc21,CC50,[1],> 40 µM (active)
COC(=O)c1ccc(N/C=C/C(=O)c2ccccc2)cc1,IC50,[2],3.73 µM (active)
COc1ccccc1-c1nc(-c2ccc(Br)cc2)no1,EC50,H4,< 0.1 µM (active)
same,EC50,[3],340 nM (active)
same,EC50,[4],217 nM (active)
same,EC50,[5],378 nM (active)
same,EC50,[6],427 nM (active)
CC(C)(C)c1cc(NCCCn2ccnc2)n2ncc(-c3ccccc3)c2n1,AC50,INS1,11 µM (active)
same,EC50,H4,> 120 µM (not active)
same,EC50,[3],735 nM (active)
same,EC50,[4],< 100 nM (active)
same,IC50,[7],> 20 µM (inactive)
same,EC50,[5],377 nM (active)
same,EC50,[6],1270 nM (active)
COc1ccc(CN2CCN(C(c3ccc(F)cc3)c3ccc(F)cc3)CC2)c(OC)c1OC,IC50,[8],2.77 µM (active)
same,IC50,[9],3.13 µM (active)
same,IC50,[10],3.7 µM (active)
same,IC50,[11],3.32 µM (active)
same,IC50,[12],2.93 µM (active)
same,IC50,[13],2.82 µM (active)
same,IC50,[14],443 nM (active)
same,IC50,[15],1.7 µM (active)
Cc1ccc(Nc2nc(C(=O)NCc3ccco3)cs2)cc1,CC50,[16],> 40 µM (active)
O=c1c2ccccc2nc2n1CCc1c-2[nH]c2ccccc12 [RUTAECARPINE],IC50,Danio rerio,25.5 µM (not active)
same,IC50,[17],> 67.6 µM (inactive)
same,AC50,Cytochrome P450 3A4,3.98 µM (inconclusive)
same,AC50,[18],25.1 µM (active)
Cc1ccc(C)c2sc(NC(=O)C3CC3)nc12,EC50,[19],4.22 µM (active)
CCCCc1c(O)nc(SCC(=O)Nc2ccc3c(c2)CCC3)nc1O,IC50,Aspartyl aminopeptidase,> 73.5 µM (not active)
same,IC50,Procathepsin L,> 59.6 µM (not active)
same,EC50,[20],> 50 µM (active)
same,IC50,Leucine aminopeptidase,7.61 µM (active)
Cc1ccc(S(=O)(=O)Nc2ccc3oc(=O)sc3c2)c(C)c1,EC50,[21],12.8 µM (active)
same,EC50,[22],13.7 µM (active)
COC(=O)c1ccc(CN2CCCC(CCC(=O)NCc3ccc(C)o3)C2)cc1 (centres undefined),EC50,cells,113 nM (active)
same,EC50,[23],> 60 µM (not active)
same,EC50,[24],< 100 nM (active)
Cc1[nH]n(-c2ccccc2)c(=O)c1N=Nc1ccc(C(N)=O)cc1,IC50,[2],20.9 µM (not active)
CCOC(=O)c1sc2nccc(N(C)C)c2c1/N=C/N(C)C,EC50,[25],> 79.4 µM (not active)
same,EC50,[26],> 79.4 µM (not active)
same,EC50,[27],> 79.4 µM (not active)
Cc1ccccc1Oc1ccc(NC(=O)C2CC=CCC2C(=O)O)cc1 (centres undefined),IC50,Aspartyl aminopeptidase,> 73.5 µM (not active)
same,IC50,Procathepsin L,> 59.6 µM (not active)
same,IC50,Leucine aminopeptidase,1.33 µM (active)
COc1cc(CN(C)CC2CCCN(CCc3ccccc3F)C2)cc(Cl)c1OC (centres undefined),EC50,cells,263 nM (active)
same,EC50,[28],3.35 µM (active)
same,EC50,[23],11.1 µM (active)
same,EC50,[24],< 100 nM (active)
COc1ccc(N=C(S)NCCc2ccccc2OC)c(OC)c1,CC50,[16],> 40 µM (active)
O=C(CN1CCOCC1)Nc1nc2ccc([N+](=O)[O-])cc2s1,EC50,[19],2.61 µM (active)
CCN1C(=O)CS/C1=N/C1C2CC3CC(C2)CC1C3 (centres undefined),EC50,[21],> 20 µM (not active)
same,EC50,[22],11.4 µM (active)
